What was measured:
PLK4 (h) = PLK4 (h) (Homo sapiens, UniProt O00444); test: PLK-4 human kinase inhibition, scintillation proximity assay (SPA); format: biochemical; conditions: read-out: PLK4 pIC50 (converted)
Description: (§1) In the SPA technology the activity of the kinase of interest is measured using an appropriate biotinylated substrate that is incubated with the aforementioned kinase protein in the presence of (^33P) radiolabeled ATP. (^33P) Phosphorylation of the substrate is subsequently measured through binding of the phosphorylated substrate to streptavidine coated beads that are based on the scintillant poly(vinyl toluene) (PVT-Beads). The scintillation intensity is detected by imaging on Leadseeker.
(§2) All kinases are pre-diluted to a 10× working concentration prior to addition into the assay. The composition of the dilution buffer for each kinase is detailed below.
(6.0 μCi/ml). After incubation of 60 minutes at room temperature, the reaction is stopped by addition of 40 μL of stop solution containing 8.7 mM EDTA, BSA 0.17%, 0.17% Triton X-100, 1.7 mg/ml SPA beads (GE-healthcare). The plate is centrifuged and read for Scintillation imaging on Leadseeker.

AuroraB (h) = AuroraB (h) (Homo sapiens, UniProt Q96GD4); test: Aurora-B human kinase inhibition, SPA; format: biochemical; conditions: read-out: AuroraB pIC50 (converted)
Description: (§3) The in vitro inhibition of a panel of kinases was assessed using either the scintillation proximity assay (SPA) as described by Cook, N. D. et al., Advances in Experimental Medicine and Biology (1991), 36; p. 525-528.
as §1, §2
In a final reaction volume of 30 μl, AuroraB (h) (0.5 μg/ml) is incubated with 60 mM Hepes pH 7.5, 3 mM MgCl2, 3 mM MnCl2, 3 μM Na3VO4, 0.05 mg/ml PEG, 2 mM DTT, 3 μM Biotin-[…]-OH, 0.5 μM ATP and 2.2 nM [γ-^33P-ATP] (6.8 μCi/ml). After incubation of 60 minutes at room temperature, the reaction is stopped by addition of 40 μL of stop solution containing 8.7 mM EDTA, BSA 0.17%, 0.17% Triton X-100, 5 mg/ml SPA beads (GE-healthcare). The plate is centrifuged and read for Scintillation imaging on Leadseeker.

GSK3β (h) = GSK3β (h) (Homo sapiens, UniProt P49841); test: GSK-3β human kinase inhibition, SPA; format: biochemical; conditions: read-out: GSK3b pIC50 (converted)
Description: as §3, §1, §2
In a final reaction volume of 30 μl, GSK3β (h) (1 μg/ml) is incubated with 25 mM Tris pH 7.4, 10 mM MgCl2, 1 mM DTT, 1 μM peptide Biotin-[…]-OH, 1 μM ATP and 2 nM [γ-^33P-ATP] (6.0 μCi/ml). After incubation of 60 minutes at room temperature, the reaction is stopped by addition of 40 μL of stop solution containing 8.7 mM EDTA, BSA 0.17%, 0.17% Triton X-100, 6.25 mg/ml SPA beads (GE-healthcare). The plate is centrifuged and read for Scintillation imaging on Leadseeker.

CDK1/CyclinB (h) = CDK1/CyclinB (h) (Homo sapiens, UniProt P06493); test: CDK1/CyclinB human kinase inhibition, Invitrogen's FRET assay (Z'lyte); format: biochemical; conditions: read-out: CDK1 pIC50 (converted)
Description: as §3, §2
In a final reaction volume of 10 μl, CDK1/CyclinB (h) (0.2 μg/ml) is incubated with 50 mM Hepes pH 7.5, 10 mM MgCl2, 1 mM EGTA, 0.01% Brij-35, 2 μM Z'lyte Ser/Thr peptide 12 and 10 μM ATP (Invitrogen's FRET assay). After incubation of 60 minutes at room temperature, the reaction is stopped by addition of 5 μL development reagent containing protease mix. After 60 minutes room temperature the development reaction is stopped by adding 5 μl stop solution. The plate is then read in fluorescence plate reader with excitation: 390 nm and dual emission: 460 and 538 nm. Emission ratio is determined to the formula=Emission signal intensity at 460 nm/Emission signal intensity at 538 nm.

PLK1 T210D (h) = PLK1 T210D (h) (Homo sapiens, UniProt P53350, T210D); test: PLK1 human kinase inhibition, SPA; format: biochemical; conditions: read-out: PLK1 pIC50 (converted)
Description: as §3, §1, §2
In a final reaction volume of 30 μl, PLK1 T210D (h) (0.125 ng/ml) is incubated with 50 mM Hepes pH 8.0, 2 mM MnCl2, 1 mM DTT, 2 μM of peptide Biotin-Tds linker-[…], 0.1 μM ATP and 2 nM [γ-^33P-ATP] (6.0 μCi/ml). After incubation of 40 minutes at room temperature, the reaction is stopped by addition of 40 μL of stop solution containing 8.7 mM EDTA, BSA 0.17%, 0.17% Triton X-100, 25 mg/ml SPA beads (GE-healthcare). The plate is centrifuged and read for Scintillation imaging on Leadseeker.

PLK2 (h) = PLK2 (h) (Homo sapiens, UniProt Q9NYY3); test: PLK2 human kinase inhibition, SPA; format: biochemical; conditions: read-out: PLK2 pIC50 (converted)
Description: as §3, §1, §2
(§4) In a final reaction volume of 30 μl, PLK2 (h) (30 μg/ml) is incubated with 50 mM Hepes pH 8.0, 2 mM MnCl2, 1 mM DTT, 2 μM of peptide Biotin-Tds linker-[…], 0.1 μM ATP and 2 nM [γ-^33P-ATP] (6.0 μCi/ml). After incubation of 20 minutes at room temperature, the reaction is stopped by addition of 40 μL of stop solution containing 8.7 mM EDTA, BSA 0.17%, 0.17% Triton X-100, 25 mg/ml SPA beads (GE-healthcare). The plate is centrifuged and read for Scintillation imaging on Leadseeker.

PLK3 (h) = PLK3 (h) (Homo sapiens, UniProt Q9H4B4); test: PLK3 human kinase inhibition, SPA; format: biochemical; conditions: read-out: PLK3 pIC50 (converted)
Description: as §3, §1, §2
as §4, with “PLK3” for “PLK2”

HCT-116 = test: Cellular proliferation assay (Alamar blue), HCT-116; format: cell-based; conditions: Homo sapiens, 10% FCS, 72 hours with compound, Alamar blue 4 h
Description: (§5) […] functional properties of these compounds were tested in cellular proliferation assays on a panel of different cell lines in the presence of 10% FCS serum (37° C. and 5% (v/v) CO2). In a first step these cells were seeded and incubated for 24 hours in the absence of compound. In the second step the cells were incubated for 72 hours with the compounds to be tested for 72 hours. The viable cell number was finally assessed in a standard Alamar blue cell viability assay.
(§6) The viable cell number was assessed by incubation for either 4 h (HCT-116, H1299) 6 h (U87-MG) or 24 h (A2780, MDA-MB-231) with Alamar blue (Resazurin 9 μg/ml, K-Ferrocyanide 90 μM, K-Ferricyanide 90 μM) and the converted fluorescent product was quantified on a fluorescent plate reader (544 nm/590 nm). Effect of the compounds is calculated as of on control cells.

H1299 = test: Cellular proliferation assay (Alamar blue), H1299; format: cell-based; conditions: Homo sapiens, NCI-H1299; 10% FCS; 72 hours with compound; Alamar blue 4 h
Description: as §5, §6

U87-MG = test: Cellular proliferation assay (Alamar blue), U87-MG; format: cell-based; conditions: Homo sapiens, U-87 MG; 10% FCS; 72 hours with compound; Alamar blue 6 h; read-out: U87-MG (cellular proliferation assay, Table 4) (converted)
Description: as §5, §6

A2780 = test: Cellular proliferation assay (Alamar blue), A2780; format: cell-based; conditions: Homo sapiens, 10% FCS, 72 hours with compound, Alamar blue 24 h, read-out: A2780 (cellular proliferation assay, Table 4) (converted)
Description: as §5, §6

MDA-MB-231 = test: Cellular proliferation assay (Alamar blue), MDA-MB-231; format: cell-based; conditions: Homo sapiens, 10% FCS, 72 hours with compound, Alamar blue 24 h, read-out: MDA/MB231 (cellular proliferation assay, Table 4) (converted)
Description: as §5, §6

AuroraB (h), sequence (Q96GD4 whole entry): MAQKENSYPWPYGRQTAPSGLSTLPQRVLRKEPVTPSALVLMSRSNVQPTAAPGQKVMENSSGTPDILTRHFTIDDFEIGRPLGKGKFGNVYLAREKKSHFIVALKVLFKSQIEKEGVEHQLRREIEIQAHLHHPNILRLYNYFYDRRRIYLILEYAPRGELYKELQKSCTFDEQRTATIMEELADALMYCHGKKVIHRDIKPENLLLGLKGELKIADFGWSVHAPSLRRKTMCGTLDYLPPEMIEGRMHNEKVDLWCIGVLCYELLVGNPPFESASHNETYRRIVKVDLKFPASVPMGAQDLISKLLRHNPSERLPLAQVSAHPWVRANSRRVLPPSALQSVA
PLK1 T210D (h), sequence (P53350 whole entry T210D): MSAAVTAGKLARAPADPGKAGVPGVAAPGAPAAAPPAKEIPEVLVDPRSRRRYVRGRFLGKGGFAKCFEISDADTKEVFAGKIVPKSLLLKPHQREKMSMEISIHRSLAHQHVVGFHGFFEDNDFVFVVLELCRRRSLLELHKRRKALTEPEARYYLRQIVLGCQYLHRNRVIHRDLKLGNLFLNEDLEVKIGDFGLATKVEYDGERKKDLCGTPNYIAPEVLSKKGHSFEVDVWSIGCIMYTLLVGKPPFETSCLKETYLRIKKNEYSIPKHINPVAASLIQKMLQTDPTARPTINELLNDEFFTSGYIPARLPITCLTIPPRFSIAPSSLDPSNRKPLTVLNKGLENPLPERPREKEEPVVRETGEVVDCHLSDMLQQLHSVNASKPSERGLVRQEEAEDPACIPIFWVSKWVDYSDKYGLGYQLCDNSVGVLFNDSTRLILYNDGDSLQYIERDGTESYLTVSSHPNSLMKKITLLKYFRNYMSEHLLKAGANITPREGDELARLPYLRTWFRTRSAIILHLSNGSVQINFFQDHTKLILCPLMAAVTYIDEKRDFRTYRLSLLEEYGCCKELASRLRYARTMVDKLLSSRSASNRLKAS
GSK3β (h), sequence (P49841 whole entry): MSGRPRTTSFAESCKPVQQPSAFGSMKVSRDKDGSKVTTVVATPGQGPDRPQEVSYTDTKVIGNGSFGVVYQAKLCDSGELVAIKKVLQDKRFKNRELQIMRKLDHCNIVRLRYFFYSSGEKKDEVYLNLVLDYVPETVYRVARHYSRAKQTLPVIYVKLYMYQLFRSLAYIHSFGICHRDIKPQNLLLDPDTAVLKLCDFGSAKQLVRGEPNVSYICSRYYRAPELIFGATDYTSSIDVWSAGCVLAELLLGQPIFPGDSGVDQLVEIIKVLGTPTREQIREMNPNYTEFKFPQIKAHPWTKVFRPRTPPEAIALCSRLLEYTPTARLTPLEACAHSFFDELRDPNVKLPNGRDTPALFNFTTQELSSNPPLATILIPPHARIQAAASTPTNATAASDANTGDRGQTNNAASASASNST
PLK2 (h), sequence (Q9NYY3 whole entry): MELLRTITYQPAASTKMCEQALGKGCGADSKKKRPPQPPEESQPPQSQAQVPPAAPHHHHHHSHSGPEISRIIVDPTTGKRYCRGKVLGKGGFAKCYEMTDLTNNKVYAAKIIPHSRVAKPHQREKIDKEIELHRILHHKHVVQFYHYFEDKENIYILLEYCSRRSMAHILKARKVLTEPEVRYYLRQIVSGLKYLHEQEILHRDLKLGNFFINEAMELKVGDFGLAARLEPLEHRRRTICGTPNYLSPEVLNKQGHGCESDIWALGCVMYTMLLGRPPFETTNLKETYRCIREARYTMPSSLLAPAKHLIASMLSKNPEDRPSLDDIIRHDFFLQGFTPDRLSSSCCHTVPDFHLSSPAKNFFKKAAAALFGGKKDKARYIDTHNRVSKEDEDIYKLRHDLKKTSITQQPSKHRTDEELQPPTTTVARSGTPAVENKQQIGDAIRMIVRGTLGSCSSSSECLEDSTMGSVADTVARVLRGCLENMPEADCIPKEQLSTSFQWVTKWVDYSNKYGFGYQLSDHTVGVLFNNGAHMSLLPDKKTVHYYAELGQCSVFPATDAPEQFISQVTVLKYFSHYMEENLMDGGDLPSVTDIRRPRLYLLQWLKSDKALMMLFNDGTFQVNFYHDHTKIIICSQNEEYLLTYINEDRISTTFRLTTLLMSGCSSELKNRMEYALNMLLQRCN
PLK4 (h), sequence (O00444 whole entry): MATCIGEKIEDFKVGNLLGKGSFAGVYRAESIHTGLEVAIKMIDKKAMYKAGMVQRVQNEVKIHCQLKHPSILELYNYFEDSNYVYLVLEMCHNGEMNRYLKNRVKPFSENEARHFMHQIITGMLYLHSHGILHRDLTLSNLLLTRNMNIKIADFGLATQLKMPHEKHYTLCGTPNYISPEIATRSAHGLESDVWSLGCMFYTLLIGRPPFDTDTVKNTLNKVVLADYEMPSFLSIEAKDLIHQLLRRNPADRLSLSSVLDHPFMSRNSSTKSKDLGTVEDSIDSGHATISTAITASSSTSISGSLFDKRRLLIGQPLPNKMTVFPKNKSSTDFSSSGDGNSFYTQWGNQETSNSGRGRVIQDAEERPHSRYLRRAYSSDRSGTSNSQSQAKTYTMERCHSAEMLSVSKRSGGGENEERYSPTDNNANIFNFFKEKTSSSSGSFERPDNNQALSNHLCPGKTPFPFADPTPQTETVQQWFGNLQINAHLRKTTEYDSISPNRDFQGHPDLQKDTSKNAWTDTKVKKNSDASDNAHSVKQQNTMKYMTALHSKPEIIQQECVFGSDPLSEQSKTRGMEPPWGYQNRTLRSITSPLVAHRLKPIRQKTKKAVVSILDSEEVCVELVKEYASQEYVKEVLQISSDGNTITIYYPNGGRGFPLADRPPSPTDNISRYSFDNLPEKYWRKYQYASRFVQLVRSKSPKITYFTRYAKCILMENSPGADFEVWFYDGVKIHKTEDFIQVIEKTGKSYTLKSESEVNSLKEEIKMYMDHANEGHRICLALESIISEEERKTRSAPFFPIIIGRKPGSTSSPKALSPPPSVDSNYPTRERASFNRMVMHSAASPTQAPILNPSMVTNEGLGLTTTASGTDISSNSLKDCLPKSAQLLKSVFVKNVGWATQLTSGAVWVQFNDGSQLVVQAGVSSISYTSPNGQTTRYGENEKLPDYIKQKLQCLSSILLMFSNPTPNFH
CDK1/CyclinB (h), sequence (P06493 whole entry): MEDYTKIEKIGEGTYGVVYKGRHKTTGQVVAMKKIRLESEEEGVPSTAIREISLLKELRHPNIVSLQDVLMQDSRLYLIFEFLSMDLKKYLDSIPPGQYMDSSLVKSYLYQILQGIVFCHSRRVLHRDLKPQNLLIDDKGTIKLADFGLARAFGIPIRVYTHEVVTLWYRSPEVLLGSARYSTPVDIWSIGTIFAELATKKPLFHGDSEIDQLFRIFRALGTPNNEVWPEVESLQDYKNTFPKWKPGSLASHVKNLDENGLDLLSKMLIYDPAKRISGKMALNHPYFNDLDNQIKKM
CDK1/CyclinB (h), sequence (P14635 whole entry partner): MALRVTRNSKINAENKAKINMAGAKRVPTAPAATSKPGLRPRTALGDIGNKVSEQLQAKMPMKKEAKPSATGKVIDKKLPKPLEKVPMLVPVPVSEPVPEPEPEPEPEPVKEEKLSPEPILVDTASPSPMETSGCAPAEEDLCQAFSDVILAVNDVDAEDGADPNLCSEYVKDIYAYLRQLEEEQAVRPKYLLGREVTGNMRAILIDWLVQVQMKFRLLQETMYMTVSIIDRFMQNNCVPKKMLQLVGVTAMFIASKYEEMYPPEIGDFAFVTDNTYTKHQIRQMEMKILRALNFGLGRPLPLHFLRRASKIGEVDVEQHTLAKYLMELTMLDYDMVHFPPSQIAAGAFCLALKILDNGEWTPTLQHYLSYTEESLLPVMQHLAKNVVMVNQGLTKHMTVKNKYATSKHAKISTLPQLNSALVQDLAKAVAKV
PLK3 (h), sequence (Q9H4B4 whole entry): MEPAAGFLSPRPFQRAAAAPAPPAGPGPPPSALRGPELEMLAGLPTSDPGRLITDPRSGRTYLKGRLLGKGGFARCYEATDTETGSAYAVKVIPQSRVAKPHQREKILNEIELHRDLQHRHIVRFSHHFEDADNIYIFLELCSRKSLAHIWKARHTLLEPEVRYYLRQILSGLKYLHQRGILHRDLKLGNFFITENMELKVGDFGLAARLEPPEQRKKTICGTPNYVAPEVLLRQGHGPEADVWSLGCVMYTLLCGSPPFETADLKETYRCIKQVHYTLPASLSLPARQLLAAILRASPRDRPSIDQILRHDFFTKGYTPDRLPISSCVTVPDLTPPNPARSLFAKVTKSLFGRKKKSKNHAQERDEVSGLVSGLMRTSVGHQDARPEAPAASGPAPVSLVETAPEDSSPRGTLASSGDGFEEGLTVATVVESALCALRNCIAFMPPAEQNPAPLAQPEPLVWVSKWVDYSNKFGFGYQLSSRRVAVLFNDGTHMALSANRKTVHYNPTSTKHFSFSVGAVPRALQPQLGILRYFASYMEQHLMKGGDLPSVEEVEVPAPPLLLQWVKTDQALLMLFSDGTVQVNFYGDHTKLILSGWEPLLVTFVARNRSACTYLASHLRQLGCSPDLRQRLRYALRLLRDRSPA

Compound | IC50 (PLK4 (h)) | IC50 (AuroraB (h)) | IC50 (GSK3β (h)) | IC50 (CDK1/CyclinB (h)) | IC50 (PLK1 T210D (h)) | IC50 (PLK2 (h)) | IC50 (PLK3 (h)) | IC50 (HCT-116) | IC50 (H1299) | IC50 (U87-MG) | IC50 (A2780) | IC50 (MDA-MB-231)
COc1cc2cc(c1OC)CNC(=O)[C@H](CO)NCc1cccc(c1)-c1ccnc(n1)N2 [Compound 8] | 0.363 µM | 4.68 µM | 0.309 µM | > 10 µM | > 10 µM | 3.63 µM | 4.68 µM | 7.94 µM | > 10 µM | > 10 µM | > 10 µM | > 10 µM
O=C1NCCCNCc2ccc(cc2)-c2ccnc(n2)Nc2ccc(N3CCOCC3)c(c2)CN2CCC1CC2 [Compound 69] | 1.58 µM | – | – | – | > 10 µM | – | – | > 10 µM | 2.63 µM | 5.62 µM | > 10 µM | > 10 µM
COc1ccc2cc1CN1CCC(CC1)C(=O)N(C)CCCN(C)c1ccc(cn1)-c1ccnc(n1)N2 [Compound 85] | 5.89 µM | > 10 µM | 2.95 µM | > 10 µM | > 10 µM | > 10 µM | > 10 µM | 4.79 µM | 5.89 µM | > 10 µM | > 10 µM | > 10 µM
CC1(C)NCc2cc(ccc2N2CCOCC2)Nc2nccc(n2)-c2cccc(c2)OCCCNC1=O [Compound 90] | 0.646 µM | > 10 µM | 0.417 µM | 4.68 µM | > 10 µM | > 10 µM | > 10 µM | 1.7 µM | 8.71 µM | 4.57 µM | 6.03 µM | 5.37 µM
O=C1NCCCOc2cccc(c2)-c2ccnc(n2)Nc2ccc(N3CCOCC3)c(c2)CN2CCC1CC2 [Compound 93] | 1.12 µM | > 10 µM | 4.68 µM | > 10 µM | > 10 µM | > 10 µM | > 10 µM | 3.63 µM | > 10 µM | > 10 µM | 7.24 µM | 10 µM
O=C1NCCCOc2cccc(c2)-c2ccnc(n2)Nc2ccc(N3CCOCC3)c(c2)CN2C[C@H](O)C[C@@H]12 [Compound 99] | 3.63 µM | > 10 µM | 0.417 µM | > 10 µM | > 10 µM | > 10 µM | > 10 µM | 6.92 µM | > 10 µM | 6.92 µM | 7.76 µM | > 10 µM

Reference: patent publication US8609836B2, “4-aryl-2-anilino-pyrimidines” (Janssen Pharmaceutica NV, priority 2008, dated 2013)
